Assay [1] concerns BRCA mutant human breast cancer MDA-MB-436 cell line. Nature of the assay: Growth inhibition of MDA-MB-436 cells, CTG (Celltiter-Glo) method. The format is cell-based. The note with it: MDA-MB-436, 168 h, 7 days incubation, read-out: IC50 (nM), inhibition of proliferation of MDA-MB-436 cells, CTG method. The protocol: (§1) The cells were cultured in complete medium (DMEM medium+10% FBS+Insulin+glutathione). When the confluence reached about 80%, cells were digested and gently dispensed from the bottom of the dish with a 1 mL pipette. Cell suspension was collected and centrifuged at 500 rpm for 3 min. The supernatant was discarded, and the cell pellet were re-suspended in complete medium. The cells were seeded into a culture dish at an appropriate proportion, and then cultured in a 5% CO2 incubator at 37° C. The assay was carried out when the cells were in optimum condition and the confluence was reached 80%. Cells in the logarithmic growth phase were taken to centrifugate, and the culture supernatant was removed. The cells were resuspended in refresh complete medium and counted. The resuspended cells were seeded at 3000/well in a 96-well plate and incubated at 37° C., 5% CO2 incubator overnight. The compound was prepared as below: 1000× dilution tested compound solution to 40× test compound solution by adding 5 μL 1000× compound solution to 120 μL Medium (25-fold dilution). The solution was mixed by oscillation, 0.1% DMSO was used as the control.
(§2) The next day, the 96-well plate inoculated with cells was taken out from the incubator, and the culture supernatant was removed. Then fresh medium of 195 uL/well and 5 μL/well of 40× test compound solution as mentioned above were added into the 96 well plate, respectively. Finally, the plate was incubated for 7 days in a 37° C. 5% CO2 incubator. The medium containing compound was changed on the fourth day.
CTG Method: After 7 days, 100 μL Celltiter-Glo reagent was added to each well, and then the plate was shake for 2 minutes to fully lysate. Then the plate was incubated at room temperature for 10 minutes, and the chemiluminescence values were read by plate reader.
The inhibitory activity of compounds on cell proliferation was plotted using cell survival rate against the compound concentration as coordinates. Cell inhibition rate %=(Lumcompound−LumDMSO)/(Lummedium−LumDMSO)×100. Lum refers to the chemiluminescence value.
XL Fit software was used to Fit nonlinear s-curve regression to Fit the data to obtain dose-effect curves, from which IC50 values were calculated. Y=Bottom+(Top−Bottom)/(1+10^((Log IC50−X)×slope)), Where Y is the cell inhibition rate, X is the compound concentration, Bottom is the lowest inhibition rate. Top is the highest inhibition rate.
Table 2 summarizes the inhibitory effect data (IC50) of the compounds on the proliferation of human breast cancer cells MDA-MB-436 determined by CTG method.

Another assay addresses USP1/UAF1 (Homo sapiens (Human), UniProt O94782). Nature of the assay: USP1/UAF1 activity, ubiquitin-rhodamine110-glycine (Ub-Rho) assay. As to conditions: 0.1 nM USP1/UAF1, 100 nM Ub-Rho, 120 minutes; read-out: IC50 (nM), inhibitory effects on USP1/UAF1 activity. The format is biochemical. The protocol: USP1/UAF1 activity was determined by using ubiquitin-rhodamine110-glycine (Ub-Rho; Boston Biochem) assay. Enzymatic reactions were conducted in an assay buffer (50 mM Tris-HCl, pH 7.8, 0.5 mM EDTA, 100 mM NaCl, 1 mM DTT, 0.01 BSA, and 0.01% Tween-20) that contained 0.1 nM USP1/UAF1. Each individual compound was tested at ten concentrations in the range of 0.0005 to 10 μM. The plates were incubated for 15 min to attain equilibrium, and then the enzymatic reaction was initiated by dispensing 10 μL of Ub-Rho solution (100 nM final concentration). After treating 120 minutes with Ub-Rho solution, the rhodamine fluorescence was acquired using a 480 nm excitation/540 nm emission filter set by using Envision instrument. The inhibition rate of the compound to USP1/UAF1 enzyme activity was calculated according to the following formula.
IC50 value is obtained by fitting the s-shaped dose response curve equation by using XL Fit software. The curve equation is Y=100/(1+10^(log C−log IC50)). C is the compound concentration.

Assay [2] deals with BRCA mutant human breast cancer MDA-MB-436 cell line. Nature of the assay: Growth inhibition of MDA-MB-436 cells, CCK-8 method. Type of assay: cell-based. As to conditions: MDA-MB-436, 168 h, 7 days incubation, read-out: IC50 (nM), inhibition of proliferation of MDA-MB-436 cells, CCK-8 method. The procedure: as §1, §2
CCK Method: After 7 days, 20 μL of CCK-8 was added to each well and shaken gently, then was cultured for 4 hours. The plate was shaken for 5 min after incubation, the absorbance values of 450 nm or 650 nm wavelengths were recorded respectively (OD=absorbance value of 450 nm−absorbance value of 650 nm) by using the multifunction readout instrument.
Data were analyzed by software GraphPad Prism 6.0. The inhibitory activity of compounds on cell proliferation was plotted using cell survival rate against the compound concentration as coordinates. Cell survival rate %=(ODcompound−ODbackground)/(ODDMSO−ODbackground)×100. The IC50 value was fitted by the s-shaped dose response curve equation: Y=100/(1+10^(log C−log IC50)), and C was the compound concentration.
Table 3 summarizes the inhibitory effect data (IC50) of the compounds on the proliferation of human breast cancer cells MDA-MB-436 determined by CCK-8 method.
(In general: Tetrazolium assays rely on reduction of a dye to a coloured formazan, in cell work by metabolically active cells.)

The structures appear in SMILES notation.

Chain of USP1/UAF1 (O94782 whole entry): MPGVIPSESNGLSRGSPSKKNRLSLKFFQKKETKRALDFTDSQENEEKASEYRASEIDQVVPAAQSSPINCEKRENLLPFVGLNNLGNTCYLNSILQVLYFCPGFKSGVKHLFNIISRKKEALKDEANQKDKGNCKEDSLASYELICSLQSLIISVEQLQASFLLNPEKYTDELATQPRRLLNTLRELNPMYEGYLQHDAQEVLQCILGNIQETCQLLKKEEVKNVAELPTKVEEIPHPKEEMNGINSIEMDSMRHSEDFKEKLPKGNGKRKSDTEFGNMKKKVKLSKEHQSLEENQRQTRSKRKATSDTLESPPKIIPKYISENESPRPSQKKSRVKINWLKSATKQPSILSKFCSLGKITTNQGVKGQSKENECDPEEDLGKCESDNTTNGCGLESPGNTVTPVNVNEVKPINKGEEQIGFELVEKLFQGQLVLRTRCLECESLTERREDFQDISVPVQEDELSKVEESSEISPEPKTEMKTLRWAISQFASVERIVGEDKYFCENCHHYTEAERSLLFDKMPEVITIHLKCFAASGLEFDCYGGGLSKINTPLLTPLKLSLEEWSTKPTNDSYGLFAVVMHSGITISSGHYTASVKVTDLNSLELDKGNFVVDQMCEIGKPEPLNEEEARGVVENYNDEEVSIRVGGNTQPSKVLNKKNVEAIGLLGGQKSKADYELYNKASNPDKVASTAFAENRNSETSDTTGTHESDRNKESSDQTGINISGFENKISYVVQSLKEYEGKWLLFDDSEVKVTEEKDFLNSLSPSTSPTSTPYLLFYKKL
Chain of USP1/UAF1 (Q8TAF3 whole entry partner): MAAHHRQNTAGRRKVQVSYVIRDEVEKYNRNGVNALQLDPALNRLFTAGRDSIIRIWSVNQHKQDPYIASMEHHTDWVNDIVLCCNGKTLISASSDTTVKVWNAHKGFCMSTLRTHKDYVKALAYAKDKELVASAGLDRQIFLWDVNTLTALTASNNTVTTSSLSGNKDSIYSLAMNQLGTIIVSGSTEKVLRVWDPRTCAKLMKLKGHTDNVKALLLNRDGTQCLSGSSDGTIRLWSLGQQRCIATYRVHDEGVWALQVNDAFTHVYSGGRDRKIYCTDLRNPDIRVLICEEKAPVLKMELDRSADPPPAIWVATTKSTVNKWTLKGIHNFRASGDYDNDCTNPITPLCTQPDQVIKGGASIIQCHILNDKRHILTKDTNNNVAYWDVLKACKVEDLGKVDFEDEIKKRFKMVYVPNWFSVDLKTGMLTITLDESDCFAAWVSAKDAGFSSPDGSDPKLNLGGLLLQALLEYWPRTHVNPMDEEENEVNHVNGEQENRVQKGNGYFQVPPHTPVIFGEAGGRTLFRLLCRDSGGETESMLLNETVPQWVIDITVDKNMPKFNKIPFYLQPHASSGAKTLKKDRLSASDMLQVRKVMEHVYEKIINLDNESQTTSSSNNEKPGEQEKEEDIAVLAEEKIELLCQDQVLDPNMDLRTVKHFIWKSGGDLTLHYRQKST

With `Cc1cn(C)c(-c2ccc(Cc3cccn4nc(-c5ccccc5C(C)C)nc34)cc2)n1` [Example 1, 8-(4-(1,4-dimethyl-1H-imidazol-2-yl)benzyl)-2-(2-isopropylphenyl)-[1,2,4]triazolo[1,5-a]pyridine], the IC50 in assay [1] was determined as 161 nM.

For `COc1ncnc(C2CC2)c1-c1nc2cccc(Cc3ccc(-c4nc(C(F)(F)F)cn4C)cc3)n2n1` [Example 14, 2-(4-cyclopropyl-6-methoxypyrimidin-5-yl)-5-(4-(1-methyl-4-(trifluoromethyl)-1H-imidazol-2-yl)benzyl)-[1,2,4]triazolo[1,5-a]pyridine], the results for the IC50 (on USP1/UAF1; in assay [2]; in assay [1]) were 30.6 nM, 26.4 nM and 21.6 nM, respectively.

In the case of `COc1ncnc(C2CC2)c1-c1nc2ccnc(Cc3ccc(-c4nc(C(F)(F)F)cn4C4CC4)cc3)n2n1` [Example 40, 5-(4-(1-cyclopropyl-4-(trifluoromethyl)-1H-imidazol-2-yl)benzyl)-2-(4-cyclopropyl-6-methoxypyrimidin-5-yl)-[1,2,4]triazolo[1,5-c]pyrimidine], the IC50 on USP1/UAF1 was 19.9 nM; in assay [1], 21.1 nM.

With `COc1ncnc(C2CC2)c1-c1nc2nccc(Cc3ccc(-c4nc(C(F)(F)F)cn4C)cc3)n2n1` [Example 23, 2-(4-cyclopropyl-6-methoxypyrimidin-5-yl)-7-(4-(1-methyl-4-(trifluoromethyl)-1H-imidazol-2-yl)benzyl)-[1,2,4]triazolo[1,5-a]pyrimidine], the figures for the IC50 (on USP1/UAF1; in assay [1]) were 175 nM and 496 nM, respectively.

For `COc1ncnc(C2CCC2)c1-c1nc2c(Cc3ccc(-c4nc(C(F)(F)F)cn4C)cc3)cccn2n1` [Example 28, 2-(4-cyclobutyl-6-methoxypyrimidin-5-yl)-8-(4-(1-methyl-4-(trifluoromethyl)-1H-imidazol-2-yl)benzyl)-[1,2,4]triazolo[1,5-a]pyridine], the IC50 on USP1/UAF1 was found to be 26 nM; in assay [1], 40.6 nM.

With `CC(C)c1ccccc1-c1nc2c(Cc3ccc(-c4nc(C(F)(F)F)cn4C)cc3)ccnn2n1` [Example 9, 2-(2-isopropylphenyl)-8-(4-(1-methyl-4-(trifluoromethyl)-1H-imidazol-2-yl)benzyl)-[1,2,4]triazolo[1,5-b]pyridazine], the IC50 in assay [2] came out at 1170 nM.

Take `COc1ncnc(C2CC2)c1-c1nc2cncc(Cc3ccc(-c4nc(C(F)(F)F)cn4C)cc3)n2n1` [Example 22, 2-(4-cyclopropyl-6-methoxypyrimidin-5-yl)-5-(4-(1-methyl-4-(trifluoromethyl)-1H-imidazol-2-yl)benzyl)-[1,2,4]triazolo[1,5-a]pyrazine]: the IC50 on USP1/UAF1 came out at 147 nM; in assay [1] it was 227 nM.

Regarding `CC(C)c1ccccc1-c1nc2cccc(Cc3ccc(-c4nc(C(F)(F)F)cn4C)cc3)n2n1` [Example 10, 2-(2-isopropylphenyl)-5-(4-(1-methyl-4-(trifluoromethyl)-1H-imidazol-2-yl)benzyl)-[1,2,4]triazolo[1,5-a]pyridine], the IC50 in assay [2] amounted to 226 nM.

Take `COc1ncnc(OC)c1-c1nc2c(Cc3ccc(-c4nc(C(F)(F)F)cn4C)cc3)cccn2n1` [Example 27, 2-(4,6-dimethoxypyrimidin-5-yl)-8-(4-(1-methyl-4-(trifluoromethyl)-1H-imidazol-2-yl)benzyl)-[1,2,4]triazolo[1,5-a]pyridine]: in assay [1], the IC50 was 158 nM.

With `Cc1cnn(C(C)C)c1-c1nc2c(Cc3ccc(-c4nc(C(F)(F)F)cn4C)cc3)cccn2n1` [Example 16, 2-(1-isopropyl-4-methyl-1H-pyrazol-5-yl)-8-(4-(1-methyl-4-(trifluoromethyl)-1H-imidazol-2-yl)benzyl)-[1,2,4]triazolo[1,5-a]pyridine], the IC50 at USP1/UAF1 came to 15.8 nM; in assay [2] it was 13.2 nM.

For `COc1ncnc(C2CC2)c1-c1nc2c(Cc3ccc(-c4nc(C(F)(F)F)cn4C(C)C)cc3)cccn2n1` [Example 4, 2-(4-cyclopropyl-6-methoxypyrimidin-5-yl)-8-(4-(1-isopropyl-4-(trifluoromethyl)-1H-imidazol-2-yl)benzyl)-[1,2,4]triazolo[1,5-a]pyridine], the figures for the IC50 (at USP1/UAF1; in assay [2]) were 66.6 nM and 25.5 nM, respectively.

`COc1ncnc(C2CC2)c1-c1nc2c(Cc3ccc(-n4nc(C(F)(F)F)cc4C)cc3)cccn2n1` [Example 6, 2-(4-cyclopropyl-6-methoxypyrimidin-5-yl)-8-(4-(5-methyl-3-(trifluoromethyl)-1H-pyrazol-1-yl)benzyl)-[1,2,4]triazolo[1,5-a]pyridine]: the figures for the IC50 (on USP1/UAF1; in assay [2]) were 460 nM and 28.3 nM, respectively.

`COc1ncnc(C2CC2)c1-c1nc2c(Cc3ccc(-c4nc(C(F)(F)F)cn4C)cc3)cncn2n1` [Example 19, 2-(4-cyclopropyl-6-methoxypyrimidin-5-yl)-8-(4-(1-methyl-4-(trifluoromethyl)-1H-imidazol-2-yl)benzyl)-[1,2,4]triazolo[1,5-c]pyrimidine]: the values for the IC50 (on USP1/UAF1; in assay [2]) were 138 nM and 44.8 nM, respectively.

For the compound `CC(C)c1ccccc1-c1nc2c(Cc3ccc(-c4nc(C(F)(F)F)cn4C)cc3)cccn2n1` [Example 3, 2-(2-isopropylphenyl)-8-(4-(1-methyl-4-(trifluoromethyl)-1H-imidazol-2-yl)benzyl)-[1,2,4]triazolo[1,5-a]pyridine], the IC50 in assay [2] was 111 nM; in assay [1], 57.6 nM.

`COc1ncnc(C2CC2)c1-c1nc2c(Cc3ccc(-c4nc(C(F)(F)F)cn4C)cc3)cccn2n1` [Example 5, 2-(4-cyclopropyl-6-methoxypyrimidin-5-yl)-8-(4-(1-methyl-4-(trifluoromethyl)-1H-imidazol-2-yl)benzyl)-[1,2,4]triazolo[1,5-a]pyridine]: the IC50 at USP1/UAF1 was determined as 39.1 nM; in assay [2], 38.8 nM.

Regarding `COc1ncnc(C2CC2)c1-c1nc2ccnc(Cc3ccc(-c4nc(C(F)(F)F)cn4C)c(F)c3)n2n1` [Example 41, 2-(4-cyclopropyl-6-methoxypyrimidin-5-yl)-5-(3-fluoro-4-(1-methyl-4-(trifluoromethyl)-1H-imidazol-2-yl)benzyl)-[1,2,4]triazolo[1,5-c]pyrimidine], the IC50 was 34.2 nM on USP1/UAF1 and 55.3 nM in assay [1].

`COc1ccccc1-c1nc2c(Cc3ccc(-c4nc(C)cn4C)cc3)cccn2n1` [Example 2, 8-(4-(1,4-dimethyl-1H-imidazol-2-yl)benzyl)-2-(2-methoxyphenyl)-[1,2,4]triazolo[1,5-a]pyridine]: in assay [1], the IC50 was more than 1000 nM.

Source of the values: patent US20240409538A1, “SUBSTITUTED TRIAZOLOHETEROARYL COMPOUNDS AS USP1 INHIBITORS AND THE USE THEREOF” (IMPACT THERAPEUTICS (SHANGHAI), INC., priority 2021, published 2024).
